Converted amounts (≈) assume the structure as drawn. Counter-ions that a name gives are not always drawn. Like-named read-outs stand apart in the source and are kept apart here.
Experiments:
[1] = Aqueous solubility of salts at 25° C.; type: physicochemical; conditions: water, 25° C., mg free acid equivalent/mL; for solubility: thermodynamic from solid, read-out: Solubility in Water; for Solubility in Water: dipotassium salt
Enterococcus faecalis = assay: Broth microdilution MIC; type: cell-based
Procedure: (§1) Bacterial Isolates. Organisms tested in this study are listed in Table P. Clinical isolates consisted of 5 Staphylococcus aureus (MSSA), 3 Staphylococcus aureus (HA-MRSA), 2 Staphylococcus aureus (CA-MRSA), 2 Enterococcus faecalis (VSE), 2 Streptococcus pyogenes, and 2 Escherichia coli (susceptible to most antibiotics). S. aureus ATCC 29213, E. faecalis ATCC 29212, S. pneumoniae ATCC 49619, and E. coli ATCC 25922 were tested for the purposes of quality control.
(§2) Minimal Inhibitory Concentrations (MIC) values against the selected isolates were determined using the reference broth microdilution method according to the Clinical Laboratory Standards Institute (CLSI) guidelines.
(§3) The MIC was read and recorded as the lowest concentration of drug that inhibited visible growth of the organism.

Streptococcus pneumoniae = assay: Broth microdilution MIC; type: cell-based
Procedure: as §1, §2, §3

Streptococcus pyogenes = assay: Broth microdilution MIC; type: cell-based
Procedure: as §1, §2, §3

Staphylococcus aureus = assay: Broth microdilution MIC; type: cell-based; conditions: Staphylococcus aureus
Procedure: as §1, §2, §3

Escherichia coli = assay: Broth microdilution MIC; type: cell-based
Procedure: as §1, §2, §3

[2] = Solid-state stability (HPLC % area after storage); type: physicochemical; conditions: for Solid-state stability % Area: 4 weeks
Procedure: (§4) Various compounds disclosed herein have been placed on long-term solid-state stability protocol. The compounds were stored in glass vials closed with PTFE lined caps at 30° C./65% RH, 40° C./75% RH, 50° C. and 60° C. (ambient humidity). The results of the study after 4 weeks are shown in Table B1 and after 3 months in Table B2. Appearance and purity analysis were conducted using HPLC and XPRD. The HPLC analyses were conducted using standard equipment such as a Agilent HP1100 HPLC (Station ID: LZPES HPLC 04) with YMC-Pack ODS-AQ sub 3 μm, 150×4.6 mm

[3] = XRPD crystal form after storage; type: physicochemical; conditions: 4 weeks storage
Procedure: as §4, with “mm Samples were prepared for XRPD by sprinkling ˜20 mg onto a Si wafer zero background plate and pressing the material flat to ensure the surface is smooth and level. The samples were analyzed according the equipment parameters below.” for “mm”

[4] = ATCC29212, E. faecalis ATCC 29212, read-out: MIC
[5] = E. faecalis 4158, VSE, read-out: MIC
[6] = E. faecalis 4212, VSE, read-out: MIC
[7] = ATCC49619, S. pneumoniae ATCC 49619, read-out: MIC
[8] = Streptococcus pyogenes, S. pyogenes 6179, read-out: MIC
[9] = ATCC29213, S. aureus ATCC 29213, read-out: MIC
[10] = MRSA, S. aureus 3083, HA-MRSA, read-out: MIC
[11] = MRSA, S. aureus 3086, HA-MRSA, read-out: MIC
[12] = MRSA, S. aureus 3265, HA-MRSA, read-out: MIC
[13] = MSSA, S. aureus 3104, MSSA, read-out: MIC
[14] = MSSA, S. aureus 3107, MSSA, read-out: MIC
[15] = MSSA, S. aureus 3245, MSSA, read-out: MIC
[16] = MSSA, S. aureus 3250, MSSA, read-out: MIC
[17] = MSSA, S. aureus 3856, MSSA, read-out: MIC
[18] = S. aureus 2168, CAMRSA, read-out: MIC
[19] = S. aureus 2294, CAMRSA, read-out: MIC
[20] = Escherichia coli, ATCC25922, E. coli ATCC 25922, read-out: MIC
[21] = Escherichia coli, E. coli 2214, read-out: MIC
[22] = Escherichia coli, E. coli 5255, read-out: MIC

Compound	MIC (Enterococcus faecalis; [4])	MIC (Enterococcus faecalis; [5])	MIC (Enterococcus faecalis; [6])	MIC (Streptococcus pneumoniae; [7])	MIC (Streptococcus pyogenes; S. pyogenes 6528)	MIC (Streptococcus pyogenes; [8])	MIC (Staphylococcus aureus; [9])	MIC (Staphylococcus aureus; [10])	MIC (Staphylococcus aureus; [11])	MIC (Staphylococcus aureus; [12])	MIC (Staphylococcus aureus; [13])	MIC (Staphylococcus aureus; [14])	MIC (Staphylococcus aureus; [15])	MIC (Staphylococcus aureus; [16])	MIC (Staphylococcus aureus; [17])	MIC (Staphylococcus aureus; [18])	MIC (Staphylococcus aureus; [19])	MIC (Escherichia coli; [20])	MIC (Escherichia coli; [21])	MIC (Escherichia coli; [22])	other results
Cc1c(CN(C)C(=O)/C=C/c2cnc3c(c2)CCC(=O)N3COP2(=O)[O][Ca][O]2)oc2ccccc12 [Compound 13, (E)-6-[(N-methyl-((3-methylbenzofuran-2-yl)methyl)amino)-3-oxoprop-1-en-1-yl)-2-oxo-3,4-dihydro-1,8-naphthyridin-1(2H)-yl]methylphosphate calcium salt]																					solubility [1]: < 100 µg/mL
O=C(O)c1cn(C2CC2)c2cc(N3CCNCC3)c(F)cc2c1=O [Ciprofloxacin]	0.5 µg/mL (≈ 1.51 µM)	64 µg/mL (≈ 193 µM)	32 µg/mL (≈ 96.6 µM)	0.5 µg/mL (≈ 1.51 µM)	0.5 µg/mL (≈ 1.51 µM)	0.5 µg/mL (≈ 1.51 µM)	0.5 µg/mL (≈ 1.51 µM)	32 µg/mL (≈ 96.6 µM)	> 64 µg/mL	> 64 µg/mL	0.25 µg/mL (≈ 0.754 µM)	0.5 µg/mL (≈ 1.51 µM)	0.5 µg/mL (≈ 1.51 µM)	2 µg/mL (≈ 6.04 µM)	> 64 µg/mL	16 µg/mL (≈ 48.3 µM)	> 64 µg/mL	0.008 µg/mL (≈ 0.0241 µM)	0.015 µg/mL (≈ 0.0453 µM)	0.008 µg/mL (≈ 0.0241 µM)	
(E)-6-[(N-methyl-((3-methylbenzofuran-2-yl)methyl)amino)-3-oxoprop-1-en-1-yl)-2-oxo-3,4-dihydro-1,8-naphthyridin-1(2H)-yl]methylphosphate dipotassium salt [Bis-Potassium (amorphous) (Compound 11)]																					Solubility in Water [1]: >100 mg/mL
Cc1c(CN(C)C(=O)/C=C/c2cnc3c(c2)CCC(=O)N3COP2(=O)[O][Mg][O]2)oc2ccccc12 [Compound 12, (E)-6-[(N-methyl-((3-methylbenzofuran-2-yl)methyl)amino)-3-oxoprop-1-en-1-yl)-2-oxo-3,4-dihydro-1,8-naphthyridin-1 (2H)-yl]methylphosphate magnesium salt]																					solubility [1]: < 1000 µg/mL
(E)-6-[(N-methyl-((3-methylbenzofuran-2-yl)methyl)amino)-3-oxoprop-1-en-1-yl)-2-oxo-3,4-dihydro-1,8-naphthyridin-1(2H)-yl]methylphosphate dipotassium salt [Bis-Potassium (crystalline) (Compound 11)]																					Solid-state stability % Area ([2]; 30° C./65% RH): 87.8 % Area; Solid-state stability % Area ([2]; 40° C./75% RH): 64.3 % Area; Solid-state stability % Area ([2]; 50° C./ambient humidity): 72.5 % Area; Solid-state stability % Area ([2]; 60° C./ambient humidity): 50.7 % Area; Solid-state stability % Area ([2]; Control (ambient lab conditions protected from light)): 95.4 % Area; Solubility in Water [1]: 30 to 35 mg/mL
CC(=O)NC[C@H]1CN(c2ccc(N3CCOCC3)c(F)c2)C(=O)O1 [Linezolid]	1 µg/mL (≈ 2.96 µM)	1 µg/mL (≈ 2.96 µM)	1 µg/mL (≈ 2.96 µM)	1 µg/mL (≈ 2.96 µM)	1 µg/mL (≈ 2.96 µM)	1 µg/mL (≈ 2.96 µM)	4 µg/mL (≈ 11.9 µM)	2 µg/mL (≈ 5.93 µM)	2 µg/mL (≈ 5.93 µM)	2 µg/mL (≈ 5.93 µM)	2 µg/mL (≈ 5.93 µM)	2 µg/mL (≈ 5.93 µM)	2 µg/mL (≈ 5.93 µM)	4 µg/mL (≈ 11.9 µM)	2 µg/mL (≈ 5.93 µM)	2 µg/mL (≈ 5.93 µM)	2 µg/mL (≈ 5.93 µM)	64 µg/mL (≈ 190 µM)	> 64 µg/mL	64 µg/mL (≈ 190 µM)	
Cc1c(CN(C)C(=O)/C=C/c2cnc3c(c2)CCC(=O)N3)oc2ccccc12 [Compound IV, (E)-N-methyl-N-((3-methylbenzofuran-2-yl)methyl)-3-(7-oxo-5,6,7,8-tetrahydro-1,8-naphthyridin-3-yl)acrylamide, reference compound]																					solubility ([1]; 25 °C): < 1 µg/mL
CN[C@H](CC(C)C)C(=O)N[C@H]1C(=O)N[C@@H](CC(N)=O)C(=O)N[C@H]2C(=O)N[C@H]3C(=O)N[C@H](C(=O)N[C@H](C(=O)O)c4cc(O)cc(O)c4-c4cc3ccc4O)[C@H](O)c3ccc(c(Cl)c3)Oc3cc2cc(c3O[C@@H]2O[C@H](CO)[C@@H](O)[C@H](O)[C@H]2O[C@H]2C[C@](C)(N)[C@H](O)[C@H](C)O2)Oc2ccc(cc2Cl)[C@H]1O [Vancomycin]					0.25 µg/mL (≈ 0.173 µM)																MIC (Enterococcus faecalis; ATCC29212, E. faecalis ATCC 29212): 1 µg/mL (≈ 0.69 µM); MIC (Enterococcus faecalis; E. faecalis 4158, VSE): > 64 µg/mL; MIC (Enterococcus faecalis; E. faecalis 4212, VSE): 16 µg/mL (≈ 11 µM); MIC (Streptococcus pneumoniae; ATCC49619): 0.12 µg/mL (≈ 0.0828 µM); MIC (Streptococcus pyogenes; Streptococcus pyogenes): 0.25 µg/mL (≈ 0.173 µM); MIC (Staphylococcus aureus; ATCC29213, S. aureus ATCC 29213): 0.5 µg/mL (≈ 0.345 µM); MIC (Staphylococcus aureus; MRSA, S. aureus 3083, HA-MRSA): 0.5 µg/mL (≈ 0.345 µM); MIC (Staphylococcus aureus; MRSA, S. aureus 3086, HA-MRSA): 1 µg/mL (≈ 0.69 µM); MIC (Staphylococcus aureus; MRSA, S. aureus 3265, HA-MRSA): 0.5 µg/mL (≈ 0.345 µM); MIC (Staphylococcus aureus; MSSA, S. aureus 3104): 0.5 µg/mL (≈ 0.345 µM); MIC (Staphylococcus aureus; MSSA, S. aureus 3107): 0.5 µg/mL (≈ 0.345 µM); MIC (Staphylococcus aureus; MSSA, S. aureus 3245): 0.5 µg/mL (≈ 0.345 µM); MIC (Staphylococcus aureus; MSSA, S. aureus 3250): 0.5 µg/mL (≈ 0.345 µM); MIC (Staphylococcus aureus; MSSA, S. aureus 3856): 1 µg/mL (≈ 0.69 µM); MIC (Staphylococcus aureus; S. aureus 2168, CAMRSA): 1 µg/mL (≈ 0.69 µM); MIC (Staphylococcus aureus; S. aureus 2294, CAMRSA): 1 µg/mL (≈ 0.69 µM); MIC (Escherichia coli; E. coli 5255): >64 µg/mL; MIC (Escherichia coli; Escherichia coli): > 64 µg/mL; MIC (Escherichia coli; Escherichia coli, ATCC25922): > 64 µg/mL
Cc1c(CN(C)C(=O)/C=C/c2cnc3c(c2)CCC(=O)N3)oc2ccccc12 [Compound Z, (E)-N-methyl-N-((3-methylbenzofuran-2-yl)methyl)-3-(7-oxo-5,6,7,8-tetrahydro-1,8-naphthyridin-3-yl)acrylamide]	> 2 µg/mL	> 2 µg/mL	> 2 µg/mL	> 2 µg/mL	>2 µg/mL	> 2 µg/mL	0.004 µg/mL (≈ 0.0107 µM)	0.004 µg/mL (≈ 0.0107 µM)	0.03 µg/mL (≈ 0.0799 µM)	0.004 µg/mL (≈ 0.0107 µM)	0.015 µg/mL (≈ 0.04 µM)	0.004 µg/mL (≈ 0.0107 µM)	0.015 µg/mL (≈ 0.04 µM)	0.004 µg/mL (≈ 0.0107 µM)	0.004 µg/mL (≈ 0.0107 µM)	0.004 µg/mL (≈ 0.0107 µM)	0.03 µg/mL (≈ 0.0799 µM)	> 2 µg/mL	> 2 µg/mL	> 2 µg/mL	
Cc1c(CN(C)C(=O)/C=C/c2cnc3c(c2)CCC(=O)N3COP(=O)([O-])[O-])oc2ccccc12.[K+].[K+] [Compound 11]																					content after storage (degradation) ([2]; 4 weeks at 40/75): ~65%; chemical stability ([2]; over 1 month at 30° C./65% RH, 40° C./75% RH and 50° C., closed vials, light protected): not chemically stable; change in XRPD [3]: some changes

Reference: patent US8901105B2, “Prodrug derivatives of (E)-N-methyl-N-((3-M ethylbenzofuran-2-yl)methyl)-3-(7-oxo-5,6,7,8-tetrahydro-1,8-naphthyridin-3-yl)acrylamide” (Affinium Pharmaceuticals, Inc., priority 2012, dated 2014)
